Reference: paper PMC9311798, “A Novel Class of Potent Anti-Tyrosinase Compounds with Antioxidant Activity, 2-(Substituted phenyl)-5-(trifluoromethyl)benzo[d]thiazoles: In Vitro and In Silico Insights” (Antioxidants, 2022)

Columns and labels:
mushroom tyrosinase = molecular target: T1, mushroom tyrosinase (Agaricus bisporus, UniProt C7FF04); test: Mushroom tyrosinase inhibition assay; assay type: biochemical; conditions: L-tyrosine as substrate
T1 construct: purchased Sigma-Aldrich
Description: Mushroom tyrosinase inhibitory activity was determined as described previously, with minor modifications. L-Tyrosine was used as a substrate to determine enzyme activities. […] These dose-dependent inhibition experiments were carried out three times using three to five different concentrations of test compounds to determine IC50 values. Log–linear curves and their equations were derived from the observed percentages of inhibition.

[1] = DPPH radical scavenging activity assay; conditions: compound 1.0 mM, 30 min in the dark, 517 nm
Description: The DPPH (2,2-diphenyl-1-picrylhydrazyl) scavenging activities of synthesized compounds 1a–1p were investigated as previously described, with minor modifications. A dimethyl sulfoxide solution (20 µL) containing 10 mM of each compound was mixed with DPPH methanol solution (0.2 mM, 180 µL) in the wells of a 96-well plate, and placed in the dark for 30 min at room temperature. At 517 nm, optical densities were measured using a microplate reader (VersaMax^TM, Molecular Devices, Sunnyvale, CA, USA). The DPPH radical scavenging ability of the 2-arylbenzothiazole derivatives was compared with that of L-ascorbic acid, the positive control. All experiments were performed independently in triplicate.

[2] = test system: intracellular ROS in B16F10 cells; test: Intracellular ROS scavenging (DCFH-DA assay, SIN-1 induced); assay type: cell-based, murine; conditions: 20 µM, SIN-1 10 µM, trolox 20 µM positive control
Description: Intracellular ROS scavenging evaluation was performed as reported by Ali et al. and Lebel and Bondy. ROS generation was assessed using the ROS-sensitive fluorescence indicator DCFH-DA. Briefly, B16F10 cells were seeded in 96-well black plates (1 × 10^4 cell/well), incubated for 24 h, treated with compounds 1a–1p (20 µM in DMSO) for 2 h, stimulated with 10 µL of SIN-1 (100 µM in 50 mM sodium phosphate buffer, pH 7.4) for 1 h to induce ROS production, and then incubated with DCFH-DA (20 µM) for 30 min at 37 °C. Fluorescence was measured for 30 min at 5 min intervals at an excitation wavelength of 485 nm and emission wavelength of 535 nm, using a Berthold microplate reader (Berthold Technologies GmbH &Co., Wien, Austria).

[3] = ABTS radical scavenging activity assay; conditions: 100 µM, 2 min in the dark; for ABTS free radical scavenged (%): 734 nm
Description: At 734 nm, optical densities of the solutions were measured using a microplate reader (VersaMax^TM, Molecular Devices, Sunnyvale, CA, USA). The ABTS radical scavenging capacities of the 16 2-arylbenzothiazole derivatives were compared with trolox. All experiments were performed independently in triplicate.

T1 sequence (C7FF04 1-392 limits assumed): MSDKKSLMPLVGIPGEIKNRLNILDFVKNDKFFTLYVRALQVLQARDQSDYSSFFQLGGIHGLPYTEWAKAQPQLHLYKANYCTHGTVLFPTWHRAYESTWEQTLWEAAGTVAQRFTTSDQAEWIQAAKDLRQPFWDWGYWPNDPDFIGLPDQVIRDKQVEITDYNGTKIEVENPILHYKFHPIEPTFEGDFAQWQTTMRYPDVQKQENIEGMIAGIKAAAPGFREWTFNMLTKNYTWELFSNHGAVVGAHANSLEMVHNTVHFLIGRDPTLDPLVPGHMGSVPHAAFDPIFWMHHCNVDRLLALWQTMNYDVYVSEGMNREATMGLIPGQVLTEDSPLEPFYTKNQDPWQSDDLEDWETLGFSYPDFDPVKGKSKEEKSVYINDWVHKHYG

Row | Structure (SMILES) | IC50 (mushroom tyrosinase) [µM] | DPPH radical scavenging activity [1] | intracellular ROS scavenging [2] | melting point [°C] | ABTS radical scavenging activity (in words) [3] | ABTS free radical scavenged (%) [3] [%]
1 | Oc1ccc(-c2nc3cc(C(F)(F)F)ccc3s2)cc1O [Compound 1c, 4-(5-(Trifluoromethyl)benzo[d]thiazol-2-yl)benzene-1,2-diol] | > 300 | greatest DPPH radical scavenging activity (comparable to L-ascorbic acid) | scavenged intracellular ROS far more potently than trolox | 267.3 to 269.4 | potently scavenged the ABTS radical | 92.4
2 | COc1cc(-c2nc3cc(C(F)(F)F)ccc3s2)ccc1O [Compound 1d, 2-Methoxy-4-(5-(trifluoromethyl)benzo[d]thiazol-2-yl)phenol] | 291 ± 63.8 | moderate DPPH radical scavenging efficacy | – | 155.7 to 159.9 | – | –
3 | CCOc1cc(-c2nc3cc(C(F)(F)F)ccc3s2)ccc1O [Compound 1e, 2-Ethoxy-4-(5-(trifluoromethyl)benzo[d]thiazol-2-yl)phenol] | > 300 | – | – | 117 to 117.8 | – | –
4 | COc1ccc(-c2nc3cc(C(F)(F)F)ccc3s2)cc1O [Compound 1f, 2-Methoxy-5-(5-(trifluoromethyl)benzo[d]thiazol-2-yl)phenol] | > 300 | moderate DPPH radical scavenging efficacy | – | 142.1 to 144.5 | – | –
5 | Oc1ccccc1-c1nc2cc(C(F)(F)F)ccc2s1 [Compound 1g, 2-(5-(Trifluoromethyl)benzo[d]thiazol-2-yl)phenol] | > 300 | – | scavenged intracellular ROS to a similar extent to trolox | 175 to 176.5 | – | –
6 | COc1ccc(-c2nc3cc(C(F)(F)F)ccc3s2)cc1 [Compound 1h, 2-(4-Methoxyphenyl)-5-(trifluoromethyl)benzo[d]thiazole] | > 300 | – | – | 128.8 to 130.1 | – | –
7 | COc1ccc(-c2nc3cc(C(F)(F)F)ccc3s2)c(OC)c1 [Compound 1i, 2-(2,4-Dimethoxyphenyl)-5-(trifluoromethyl)benzo[d]thiazole] | > 300 | – | – | 140.4 to 141.6 | – | –
8 | COc1ccc(-c2nc3cc(C(F)(F)F)ccc3s2)cc1OC [Compound 1j, 2-(3,4-Dimethoxyphenyl)-5-(trifluoromethyl)benzo[d]thiazole] | 264 ± 56.6 | – | – | 120.4 to 121.6 | – | –
9 | COc1cc(-c2nc3cc(C(F)(F)F)ccc3s2)cc(OC)c1OC [Compound 1k, 5-(Trifluoromethyl)-2-(3,4,5-trimethoxyphenyl)benzo[d]thiazole] | > 300 | – | – | 132.5 to 134 | – | –
10 | COc1cc(-c2nc3cc(C(F)(F)F)ccc3s2)cc(OC)c1O [Compound 1l, 2,6-Dimethoxy-4-(5-(trifluoromethyl)benzo[d]thiazol-2-yl)phenol] | > 300 | moderate DPPH radical scavenging efficacy | – | 220.6 to 222.6 | – | –
11 | Cc1cc(-c2nc3cc(C(F)(F)F)ccc3s2)cc(C)c1O [Compound 1m, 2,6-Dimethyl-4-(5-(trifluoromethyl)benzo[d]thiazol-2-yl)phenol] | 129 ± 19.8 | moderate DPPH radical scavenging efficacy | – | – | – | –
12 | Oc1cc(O)cc(-c2nc3cc(C(F)(F)F)ccc3s2)c1 [Compound 1n, 5-(5-(Trifluoromethyl)benzo[d]thiazol-2-yl)benzene-1,3-diol] | 217 ± 32.7 | moderate DPPH radical scavenging efficacy | scavenged intracellular ROS to a similar extent to trolox | 256.7 to 260.6 | potently scavenged the ABTS radical | –
13 | Oc1c(Br)cc(-c2nc3cc(C(F)(F)F)ccc3s2)cc1Br [Compound 1o, 2,6-Dibromo-4-(5-(trifluoromethyl)benzo[d]thiazol-2-yl)phenol] | > 300 | – | – | – | – | –
14 | Oc1ccc(-c2nc3cc(C(F)(F)F)ccc3s2)cc1Br [Compound 1p, 2-Bromo-4-(5-(trifluoromethyl)benzo[d]thiazol-2-yl)phenol] | 102 ± 12.4 | – | scavenged intracellular ROS to a similar extent to trolox | – | – | –
15 | Cc1c(C)c2c(c(C)c1O)CCC(C)(C(=O)O)O2 (stereo not drawn) [trolox, 6-hydroxy-2,5,7,8-tetramethylchroman-2-carboxylic acid, reference compound] | – | – | – | – | – | 98.9
